# Calls of active or inactive are those of the source. How the calls were made is not given here.
# Molecular target: Bcl-2-like protein 1 (Homo sapiens) (UniProt Q07817)
# Test: Bcl-XL binding to Bim peptide disruption – biochemical, multiplexed, bead flow cytometry, human Bcl-XL, dose response (AID 1322); on inhibition: test concentration not given here
# Details: Bead-based flow cytometry, MCF; for inhibition: stronger effect = higher value
# Chain of Bcl-2-like protein 1 (Homo sapiens) (Q07817 whole entry, looked up): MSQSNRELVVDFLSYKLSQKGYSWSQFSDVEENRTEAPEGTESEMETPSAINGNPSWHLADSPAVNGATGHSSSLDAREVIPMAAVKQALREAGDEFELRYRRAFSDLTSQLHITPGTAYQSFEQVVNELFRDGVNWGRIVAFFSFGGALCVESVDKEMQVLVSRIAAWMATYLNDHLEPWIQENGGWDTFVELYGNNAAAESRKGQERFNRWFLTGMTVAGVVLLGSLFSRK
SMILES,outcome,inhibition
O=C(c1ccccc1)c1ccc2nc(-c3ccco3)c(-c3ccco3)nc2c1,inactive,
CCOC(=O)C1=C(Cc2ccc(C)cc2)C(=O)c2ccccc2C1=O,,inactive
CNC(=O)/C(C#N)=C/c1c(N(Cc2ccccc2)Cc2ccccc2)nc2c(C)cccn2c1=O,,inactive
Brc1ccc2ncnc(Nc3ccc(N4CCOCC4)cc3)c2c1,,inactive
COc1ccc(Cc2c(O)nc(SC)n(C(C)=O)c2=O)cc1,,inactive
Cc1ccc(C(=O)NNC(=O)c2ccc3ncccc3c2)cc1,inactive,
CN1C(=O)/C(=C/c2ccc(-c3ccccc3[N+](=O)[O-])o2)SC1=Nc1ccc(Cl)c(C(=O)O)c1,,inactive
COc1ccc2nc(C)cc(SCC(=O)N/N=C/c3ccc(O)c(O)c3)c2c1,,inactive
C/C(=N/NC(=O)c1cc(O)c(O)c(O)c1)c1ccc([N+](=O)[O-])cc1,inactive,
CCC(=O)NC(c1ccc(C)cc1)c1cc([N+](=O)[O-])c2cccnc2c1O (centres undefined),,inactive
CCOc1ccc(C(=O)Nc2nnn(CC)n2)cc1,,inactive
COc1cc(NC(=S)NC(=O)c2cc(C)cc(C)c2)ccc1NC(=O)c1cccs1,,inactive
O=C(C1=NN[C@@H]2C(=O)N(c3cccc(F)c3)C(=O)[C@H]12)c1ccc2ccccc2n1,inactive,
O=C(Nc1ccccc1N1CCOCC1)c1cccs1,,inactive
CNc1ccc(Br)cc(C(=O)/C=C/c2ccc(OC)cc2)c1=O,,inactive
COc1ccc(C2=Nn3c(nnc3-c3ccccn3)SC2)cc1OC,,inactive
COc1ccc(-c2csc(NC(=O)/C(N=Nc3ccccc3)=C(\C)O)n2)cc1,inactive,
CC(=O)Nc1ccc(NC2=C(Cl)C(=O)c3ccccc3C2=O)cc1,,inactive
NC(=O)c1c(N)sc2c1CCCCC2,,inactive
CNc1ccccc(C(=O)/C=C/c2ccccc2OC)c1=O,,inactive
O=C(Cc1ccccc1)N/N=C/c1cccn1-c1ccc([N+](=O)[O-])cc1,inactive,
NC(=O)CSc1nnc(Cn2cnc3ccccc32)o1,,inactive
CCCn1c(N2CCN(C)CC2)nc2c1c(=O)[nH]c(=O)n2C,,inactive
CCOc1ccc(N2C(=O)C(Cl)=C(Nc3ccccc3O)C2=O)cc1,,inactive
C1=CC2c3ccccc3NC(c3ccncc3)C2C1 (centres undefined),,inactive

SMILES,outcome,inhibition
O=C(c1cc(=O)c2ccccc2o1)N1CCN(c2ccccc2F)CC1,,inactive
Cc1ccc2c(c1)C1CN(C)CCC1N2C(=O)Nc1cccc(Cl)c1 (centres undefined),,inactive
COc1cc(N2CCOCC2)ccc1C=C1C(=O)NC(=O)NC1=O,,inactive
Cc1cc(NC(=O)CCCC(=O)NCc2ccccc2)no1,,inactive
CN(CC(=O)O/N=C(\N)c1ccc([N+](=O)[O-])cc1)S(=O)(=O)c1ccccc1,,inactive
CC(CCc1ccccc1)NC(=O)C1CCN(S(=O)(=O)N2CCCCC2)CC1 (centres undefined),,inactive
O=C(Nc1ccc2nc(-c3ccco3)c(-c3ccco3)nc2c1)NC1CC1,,inactive
CCOC(=O)c1cc2c(=O)n3cccc(C)c3nc2n(Cc2ccco2)c1=NC(=O)c1ccccc1,,inactive
CC1C=CCC2C(=O)N(c3ccc(OC(=O)c4cccs4)cc3)C(=O)C12 (centres undefined),inactive,
CCOc1ccccc1C(=O)NC1CC2CCCC(C1)N2C1CC1 (centres undefined),,inactive
NC(=O)c1c(NC(=O)C2CCCO2)sc2c1CCCC2 (centres undefined),,inactive
O=C1C(Cl)=C(Nc2ccccc2O)C(=O)N1c1ccccc1,,inactive
c1ccc(-c2nnc(OCCN3CCOCC3)c3ccccc23)cc1,,inactive
O=C(Nc1n[nH]c(C(F)(F)F)n1)C1CC1,,inactive
Cc1cccc(/C=N/N(CCO)C2=NS(=O)(=O)c3ccccc32)c1,,inactive
Cc1ccc(-c2cc(C(=O)Nc3cccnc3)c3ccccc3n2)o1,,inactive
COc1c(F)c(F)c(C(=O)Nc2ccccc2N2CCN(C(=O)C(C)C)CC2)c(F)c1F,,inactive
CN1CCN(c2ccc(N)cc2)CC1,,inactive
COP(=O)(CC(=O)O)c1ccccc1 (centres undefined),,inactive
Cc1ccc(/C=N/N(C)C2=NS(=O)(=O)c3ccccc32)o1,,inactive
Cc1[nH]nc(SCC(=O)NCc2ccc(F)cc2)c1[N+](=O)[O-],,inactive
Cc1cccc(Nc2nc(-c3ccncc3)cs2)c1,,inactive
COc1ccc(NC(=O)Cc2c(F)cccc2Cl)c(OC)c1,,inactive
Cc1ccc(C)n1-c1cccc(C(=O)O)c1,,inactive
